Data as given in patent US4791139A, “Diphenyl ether derivatives and their use as insecticides” (Imperial Chemical Industries PLC, priority 1986, dated 1988).

What was measured:
Assay type in all cases: in vivo
[1] = test system: Tetranychus urticae (spider mites - adult); assay: Contact test, spider mites - adult (TUa), French bean leaf; settings: 72 h, 3 days, read-out: TUA grading of mortality
Method: (§1) The activity of the Product was determined using a variety of insect pests. The Product was used in the form of liquid preparations containing from 100 to 500 parts per million (ppm) by weight of the Product. The preparations were made by dissolving the Product in acetone and diluting the solutions with water containing 0.1% by weight of a wetting agent sold under the trade name "SYNPERONIC" NX until the liquid preparations contained the required concentration of the Product. "SYNPERONIC" is a Registered Trade Mark. The test procedure adopted with regard to each pest was basically the same and comprised supporting a number of the pests on a medium which was usually a host plant or a foodstuff on which the pests feed, and treating either or both the pests and the medium with the preparations. The mortality of the pests was then assessed at periods usually varying from one to seven days after the treatment.

[2] = test system: Tetranychus urticae (spider mites - ova); assay: Contact test, spider mites - ova (TUe), French bean leaf; settings: 144 h, 6 days, read-out: TUE grading of mortality
Method: as §1

Myzus persicae (aphids) = assay: Contact test, aphids (MP), Chinese Cabbage leaf; settings: 72 h, 3 days, read-out: MP grading of mortality
Method: as §1, with “treatment. […] In Table III the pest organism used is designated by a letter code and the pests species, the support medium or food, and the type and duration of test is given in Table II.” for “treatment.”

[3] = test system: Nilaparvata lugens (brown plant hopper - nymphs); assay: Contact test, brown plant hopper - nymphs (NL), Rice plant; settings: 72 h, 3 days, read-out: NL grading of mortality
Method: as §1

[4] = test system: Musca domestica (houseflies - adults); assay: Knockdown test, houseflies - adults (MD/KD), Cotton wool/sugar; settings: 4 hours, read-out: MD/KD grading of knockdown
Method: (§2) The activity of the Product was determined using a variety of insect pests. The Product was used in the form of liquid preparations containing from 100 to 500 parts per million (ppm) by weight of the Product. The preparations were made by dissolving the Product in acetone and diluting the solutions with water containing 0.1% by weight of a wetting agent sold under the trade name "SYNPERONIC" NX until the liquid preparations contained the required concentration of the Product. "SYNPERONIC" is a Registered Trade Mark.
(§3) The test procedure adopted with regard to each pest was basically the same and comprised supporting a number of the pests on a medium which was usually a host plant or a foodstuff on which the pests feed, and treating either or both the pests and the medium with the preparations. The mortality of the pests was then assessed at periods usually varying from one to seven days after the treatment.
In the case of the species Musca domestica (housefly), an additional assessment to determine the knockdown effect of the compounds was performed.
(§4) In Table III the pest organism used is designated by a letter code and the pests species, the support medium or food, and the type and duration of test is given in Table II.

[5] = test system: Musca domestica (houseflies - adults); assay: Contact test, houseflies - adults (MD), Cotton wool/sugar; settings: 24 h, 1 day, read-out: MD grading of mortality
Method: as §1

[6] = test system: Blattella germanica (cockroach nymphs); assay: Residual test, cockroach nymphs (BG), Plastic pot; settings: 72 h, 3 days, read-out: BG grading of mortality
Method: as §1

[7] = test system: Heliothis virescens (tobacco budworm - larvae); assay: Residual test, tobacco budworm - larvae (HV), Cotton leaf; settings: 72 h, read-out: HV grading of mortality
Method: as §2, §3
(§5) The results of the tests are given in Table III for each of the Products, at the rate in parts per million given in the second column as a grading of mortality designated as A, B or C wherein A indicates 80-100% mortality or knockdown (70-100% for Meloidogyne incognita), B indicates 50-79% mortality knockdown or knockdown (50-69% for Meloidogyne incognita) and C indicates less than 50% mortality or knockdown.
as §4
(tobacco budworm - larvae)

[8] = test system: Spodoptera exigua (lesser army worm - larvae); assay: Residual test, lesser army worm - larvae (SP), Cotton leaf; settings: 72 h, 3 days, read-out: SP grading of mortality
Method: as §2, §3, §5, §4
(lesser army worm - larvae)

[9] = test system: Diabrotica balteata (rootworm larvae); assay: Residual test, rootworm larvae (DB), Filter paper/maize seed; settings: 72 h, 3 days, read-out: DB grading of mortality
Method: as §1

[10] = test system: Meloidogyne incognita (Tomato root knot eelworm - larvae); assay: Residual test, Tomato root knot eelworm - larvae (MI), Semi in-vitro; settings: 168 h, application rate is half that recorded, 7 days, read-out: MI grading of mortality; for mortality at 250 µg/mL: rate column 500 ppm; for mortality at 125 µg/mL: rate 250 ppm

SMILES	mortality at 500 ppm [1]	mortality at 500 ppm [2]	mortality at 500 ppm (Myzus persicae (aphids))	mortality at 500 ppm [3]	pest or weed control at 500 ppm [4]	mortality at 500 ppm [5]	mortality at 500 ppm [6]	mortality at 500 ppm [7]	mortality at 500 ppm [8]	mortality at 500 ppm [9]	mortality at 250 µg/mL [10]	other results
CCOc1ccc(C(CCCc2cccc(Oc3ccccc3)c2)C(F)F)cc1 (racemic) [Compound 66, 1,1-Difluoro-2-(4-ethoxyphenyl)-5-(3-phenoxyphenyl)pentane]	< 50%	< 50%	80 to 100%	80 to 100%	< 50%	80 to 100%	80 to 100%	80 to 100%	80 to 100%	80 to 100%	< 50%	
FC(F)(F)C(CCCc1cccc(Oc2ccccc2)c1)c1ccc(OC(F)(F)C(F)(F)Br)cc1 (racemic) [Compound 68, 1,1,1-trifluoro-2-[4-(2-bromo-1,1,2,2-tetrafluoroethoxy)phenyl]-5-(3-phenoxyphenyl)-pentane]	80 to 100%	80 to 100%	< 50%	80 to 100%	< 50%	< 50%	80 to 100%	< 50%	50 to 79%	80 to 100%	< 50%	
CCOc1ccc(C(CCCc2cccc(Oc3ccccc3)c2)C(F)(F)Cl)cc1 (racemic) [Compound 69, 1,1-Difluoro-1-chloro-2-(4-ethoxyphenyl)-5-(3-phenoxyphenyl)pentane]	< 50%	< 50%	80 to 100%	80 to 100%	< 50%	80 to 100%	80 to 100%	80 to 100%	80 to 100%	80 to 100%	< 50%	
Fc1cc(C(CCCc2cccc(Oc3ccccc3)c2)C(F)(F)F)cc(F)c1OC(F)(F)F (racemic) [Compound 71, 1,1,1-Trifluoro-2-(3,5-difluoro-4-trifluoromethoxyphenyl)-5-(3-phenoxyphenyl)pentane]	< 50%	< 50%	80 to 100%	50 to 79%	< 50%	< 50%	< 50%	80 to 100%	80 to 100%	80 to 100%	70 to 100%	
Fc1ccc(C(CCCc2cccc(Oc3ccccc3)c2)C(F)(F)F)c(F)c1OC(F)(F)F (racemic) [Compound 72, 1,1,1-Trifluoro-2-(2,4-difluoro-3-trifluoromethoxyphenyl)-5-(3-phenoxyphenyl)-pentane]	50 to 79%	< 50%	80 to 100%	50 to 79%	< 50%	< 50%	80 to 100%	80 to 100%	80 to 100%	80 to 100%	< 50%	
CCOc1ccc(C(CC=Cc2c(F)c(F)c(F)c(F)c2F)C(F)(F)F)cc1 (centres unmarked) [Compound 42, 1,1,1-Trifluoro-2-(4-ethoxyphenyl)-5-(pentafluorophenyl)pent-4-ene]	< 50%	< 50%	< 50%	< 50%	< 50%	< 50%	< 50%	< 50%	< 50%	80 to 100%	< 50%	
COCc1ccc(C(=CCCc2cccc(Oc3ccccc3)c2)C(F)(F)F)cc1 [Compound 44, 1,1,1-Trifluoro-2-(4-methoxymethylphenyl)-5-(3-phenoxyphenyl)-pent-2-ene]	80 to 100%	< 50%	< 50%	< 50%	< 50%	< 50%	< 50%	< 50%	50 to 79%	< 50%	< 50%	
COc1ccc(C(=CCCc2cccc(Oc3ccccc3)c2)C(F)(F)F)cc1 [Compound 46, 1,1,1-Trifluoro-2-(4-methoxyphenyl)-5-(3-phenoxyphenyl)pent-2-ene]	< 50%	< 50%	< 50%	< 50%	< 50%	< 50%	< 50%	80 to 100%	< 50%	< 50%	< 50%	
Fc1ccc(C(=CCCc2cccc(Oc3ccccc3)c2)C(F)(F)F)cc1 [Compound 47, 1,1,1-Trifluoro-2-(4-fluorophenyl)-5-(3-phenoxyphenyl)pent-2-ene]												mortality at 250 ppm [1]: < 50%; mortality at 250 ppm [2]: < 50%; mortality at 250 ppm (Myzus persicae (aphids)): < 50%; mortality at 250 ppm [3]: < 50%; pest or weed control at 250 ppm [4]: < 50%; mortality at 250 ppm [5]: < 50%; mortality at 250 ppm [6]: 50 to 79%; mortality at 250 ppm [7]: < 50%; mortality at 250 ppm [8]: 50 to 79%; mortality at 250 ppm [9]: 50 to 79%; mortality at 125 µg/mL [10]: 50 to 69%
FC(F)(F)C(=CCCc1cccc(Oc2ccccc2)c1)c1ccc2c(c1)CCC2 [Compound 48, 1,1,1-Trifluoro-2-(5-indanyl)-5-(3-phenoxyphenyl)pent-2-ene]												mortality at 250 ppm [1]: < 50%; mortality at 250 ppm [2]: < 50%; mortality at 250 ppm (Myzus persicae (aphids)): < 50%; mortality at 250 ppm [3]: < 50%; pest or weed control at 250 ppm [4]: < 50%; mortality at 250 ppm [5]: < 50%; mortality at 250 ppm [6]: 50 to 79%; mortality at 250 ppm [7]: < 50%; mortality at 250 ppm [8]: < 50%; mortality at 250 ppm [9]: 50 to 79%; mortality at 125 µg/mL [10]: < 50%
